{"source": "patent US9051306B2", "about": "“Indirubin derivative having highly selective cytotoxicity for malignant tumors” (NIHON UNIVERSITY, priority 2011, dated 2015)", "key": {"[1]": {"tested_on": "human neuroblastoma cells IMR-32", "test": "Antitumor activity, MTT method, IMR-32", "format": "cell-based", "method": "(§1) Antitumor activity was determined by the MTT (3-(4,5-dimethylthiazol-2-yl)-2,5-diphenyltetrazolium bromide) method.\n(§2) One hundred μL of a suspension of tumor cells in an RPMI 1640 medium was seeded into a 96-well plate (1×10^4 cells/well) and cultured for 24 hours (5% CO2, 37° C., saturated humidity conditions). Subsequently, the test compound (final concentration of from 1×10^−5 to 1×10^−8 M) and DMSO as a control were each added in an amount of 0.2 μL and allowed to act on the tumor cells for 48 hours. Subsequently, 10 μL of a 0.5% MTT solution was added. After 3 hours, 100 μL of a reaction terminating solution (0.04 N HCl/isopropanol) was added to terminate the reaction. After thorough pipetting, the absorbance was measured at 570 nm (top) and 655 nm (bottom) using a microplate reader. The cell survival rate for each sample at each concentration was calculated as a percentage to the control group, and IC50 values were determined from the data. The tumor cells used were human neuroblastoma cells IMR-32, SK-N-SH, LA-N-1, and NB-39 and human liver cancer cells HepG-2. Non-tumor cells: normal human dermal fibroblasts (NHDF) and human umbilical vein endothelial cells (HUVEC) were also used."}, "[2]": {"tested_on": "human umbilical vein endothelial cells (HUVEC)", "test": "Cytotoxicity, MTT method, HUVEC non-tumor cells", "format": "cell-based", "method": "as §1, §2"}, "[3]": {"tested_on": "human neuroblastoma cells LA-N-1", "test": "Antitumor activity, MTT method, LA-N-1", "format": "cell-based", "method": "as §1, §2"}, "[4]": {"tested_on": "normal human dermal fibroblasts (NHDF)", "test": "Cytotoxicity, MTT method, NHDF non-tumor cells", "format": "cell-based", "method": "as §1, §2"}, "[5]": {"tested_on": "human neuroblastoma cells SK-N-SH", "test": "Antitumor activity, MTT method, SK-N-SH", "format": "cell-based", "method": "as §1, §2"}, "[6]": {"tested_on": "human liver cancer cell line HepG2", "test": "Antitumor activity (2), Alamar Blue cell survival", "format": "cell-based", "settings": "24 hours, read-out: cytotoxic activity (IC50: 50% inhibitory concentration)", "method": "Fetal bovine serum (FBS) was added at a final concentration of 10% to dulbecco's modified eagle's medium (DMEM, Sigma-Aldrich), and a penicillin-streptomycin solution (GIBCO) was further added at a concentration of 0.1 mg/mL.\nAn Alamar Blue solution manufactured by Wako Pure Chemical Industries, Ltd. was used.\nOne hundred μL aliquot of a suspension of human liver cancer cell line HepG2 cells in DMEM medium (1.0×10^5 cells/mL) was dispensed into a 96-well culture plate. The cells were allowed to adhere to the plate by being cultured at 37° C. in 5% CO2 under saturated humidity conditions. After culture for 24 hours, the medium was removed by suction, and 100 μL of a test compound-containing medium (containing 1% DMSO) was added. The cells were cultured at 37° C. in 5% CO2 under saturated humidity conditions. After culture for 24 hours, the medium was removed by suction, and the cells were washed with phosphate buffered saline (PBS). The Alamar Blue reagent solution (100 μL) diluted 10 times with the medium was added to each well, and the cells were cultured under the same conditions. After 1 hour, the fluorescence intensity was measured at an excitation wavelength of 577 nm and a detection wavelength of 612 nm. When the cell survival rate was calculated, the value for the well added with the vehicle (containing 1% DMSO) was normalized as 100%."}, "[7]": {"tested_on": "human liver cancer cells HepG-2", "test": "Antitumor activity, MTT method, HepG-2", "format": "cell-based", "method": "as §1, §2"}, "[8]": {"tested_on": "human neuroblastoma cells NB-39", "test": "Antitumor activity, MTT method, NB-39", "format": "cell-based", "method": "as §1, §2"}, "[9]": {"tested_on": "IMR-32 cells", "test": "Ability to induce apoptosis, Hoechst 33342 staining method", "format": "cell-based, human", "method": "The ability to induce apoptosis was examined using nuclear staining by the Hoechst 33342 staining method.\nTwo mL of a suspension of cells (IMR-32) in an RPMI 1640 medium was seeded into a 6-well plate (1×10^5 cells/well) and cultured for 24 hours (under 5% CO2, 37° C., and saturated humidity conditions). Subsequently, the test compound (final concentration of from 1×10^−5 M to 1×10^−7 M) and DMSO as a control were each added in an amount of 4 μL and allowed to act on the cells for 24 hours. Subsequently, 100 μL of a 0.02% Hoechst 33342 solution was added. After 15 minutes, phase-contrast images and fluorescence images of the cells were taken with a fluorescence microscope to observe changes in cell morphology."}, "[10]": {"tested_on": "tumor cells", "test": "Antitumor activity, MTT method, overall statement on tumor cells", "format": "cell-based, human", "settings": "from FIG. 1 and Table 1", "method": "as §1, §2"}, "[11]": {"tested_on": "human neuroblastoma IMR-32 cells", "test": "Ability to induce apoptosis, flow cytometry (Annexin V-FITC/PI)", "format": "cell-based", "settings": "24 hours", "method": "Flow cytometry was used to detect whether the compound (HS-2) of the present invention had the ability to induce apoptosis of human neuroblastoma IMR-32 cells. Specifically, 2 mL of a suspension of cells (IMR-32) in an RPMI 1640 medium was seeded into a 6-well plate (1×10^6 cells/well) and cultured for 24 hours (under 5% CO2, 37° C., and saturated humidity conditions). Subsequently, the compound (HS-2) was added at a final concentration of from 1×10^−5 M to 1×10^−7 M and incubated under 37° C. and 5% CO2 conditions for 24 hours. The cells were detached with trypsin and washed with PBS. Annexin V-FITC and propidium iodide (PI) were then added to the cells to carry out flow cytometry. In this technique, only Annexin V-FITC fluorescence is observed from cells in the early apoptosis phase, and both Annexin V fluorescence and PI fluorescence are observed from cells in the late apoptosis phase."}}, "note": "“Also recorded” adds a separate entry of the source. Like-named read-outs stand apart in the source and are kept apart here."}
{"smiles": "[NH2][Pt]([NH2])([Cl])[Cl]", "note": "[CDDP, cisplatin, reference compound]", "values": [{"measurement": "IC50", "setting": "[1]; IMR-32, MTT, 48 hours, read-out: IC50", "value": 28.2, "unit": "µM"}, {"measurement": "IC50", "setting": "[2]; HUVEC normal cells, MTT, 48 hours, read-out: IC50", "value": 69.8, "unit": "µM"}, {"measurement": "IC50", "setting": "[3]; LA-N-1, MTT, 48 hours, read-out: IC50", "value": 1.63, "unit": "µM"}, {"measurement": "IC50", "setting": "[4]; NHDF normal cells, MTT, 48 hours, read-out: IC50", "value": "> 100", "unit": "µM"}, {"measurement": "IC50", "setting": "[5]; MTT, 48 hours, read-out: IC50", "value": 12.1, "unit": "µM"}, {"measurement": "IC50", "setting": "[6]", "value": 10, "unit": "µM"}, {"measurement": "IC50", "setting": "[7]; HepG-2, Table 1, read-out: IC50", "value": 10, "unit": "µM"}, {"measurement": "IC50", "setting": "[8]; NB-39, MTT, 48 hours, read-out: IC50", "value": 2.04, "unit": "µM"}]}
{"smiles": "O=C1Nc2ccccc2/C1=C1/Nc2ccccc2/C1=N\\OCC1CO1", "note": "(stereo not drawn) [HS-2, indirubin-3′-(O-oxiran-2-ylmethyl)oxime]", "values": [{"measurement": "IC50", "setting": "[1]; Homo sapiens, IMR-32, 48 h", "value": 0.329, "unit": "µM"}, {"measurement": "IC50", "setting": "[2]; Homo sapiens, HUVEC, 48 h", "value": 1.75, "unit": "µM"}, {"measurement": "IC50", "setting": "[3]; Homo sapiens, LAN1, 48 h", "value": 0.139, "unit": "µM"}, {"measurement": "apoptosis of IMR-32 neuroblastoma cells", "setting": "[9]; FIG. 2 legend", "value": "induced apoptosis"}, {"measurement": "nuclear morphology (Hoechst 33342 staining)", "setting": "[9]; IMR-32, 0.1 μM, 24 hours, FIG. 2", "value": "induced nuclear aggregation and fragmentation"}, {"measurement": "IC50", "setting": "[4]; Homo sapiens, NHDF, 48 h", "value": 61.4, "unit": "µM"}, {"measurement": "antitumor activity relative to cisplatin (CDDP)", "setting": "[10]", "value": "50 to 100", "unit": "times"}, {"measurement": "IC50", "setting": "[5]; Homo sapiens, 48 h", "value": 0.325, "unit": "µM"}, {"measurement": "IC50", "setting": "[6]; Homo sapiens", "value": 1, "unit": "µM"}, {"measurement": "IC50", "setting": "[7]; Homo sapiens, HepG2", "value": 1, "unit": "µM"}, {"measurement": "IC50", "setting": "[8]; Homo sapiens, NB39, 48 h", "value": 0.55, "unit": "µM"}, {"measurement": "apoptosis-inducing effect", "setting": "[11]; IMR-32, 10 μM", "value": "significant apoptosis-inducing effect"}, {"measurement": "ability to induce apoptosis", "setting": "[11]; IMR-32, 1×10^−5 M to 1×10^−7 M, FIG. 3", "value": "induced apoptosis; also recorded: concentration-dependent ability to induce apoptosis"}]}
